# Source: patent publication US20070082339A1, “Methods and compositions for screening for HDAC inhibitory activity” (priority 2005, published 2007)
# System: A549 cells
# Assay: Microarray analysis of gene expression after LAQ824 treatment
# Format: cell-based, human
# Conditions: A549, 500 nM vs DMSO
# Procedure: The human lung carcinoma cell line A549 is obtained from the American Type Culture Collection (Rockville, Md.) and cultured in F-12K (ATCC, Manassas, Va.), 10% fetal bovine serum, and 1% penicillin/streptomycin (Life Technologies, Inc.). LAQ824 (Novartis) is added directly to the cell medium at a final concentration of 500 nM. Microarray analysis is performed essentially as described previously (Welsh, 2001). Total RNA is prepared from A549 cells treated with LAQ 824 or DMSO for 0.5, 2, 6, 12 and 24 h. Labelled cDNA is prepared and hybridized to Affymetrix U133 oligonucleotide GeneChip® (Affymetrix, Santa Clara, Calif.). The arrays were scanned on an Affymetrix GeneArray scanner and analyzed with GENECHIP Microarray Analysis Suite 5.0 software (MAS5) (Affymetrix). The data (raw data including image files and scanner files (Cel. Files) as well as the MAS5 normalized data are stored in the DEMON Database. The MAS5 normalized data are exported from the database and analyzed using GeneSpring software version 6.1. The genes are filtered for a minimal expression of 100 in at least one condition (the condition being defined as the average the value for the 3 samples corresponding to a given time point and a treatement) The gene expression changes (fold change) are calculated for each time point (t) as follow: (Gene expression level LAQ824 treated—(Average of the 3 replicates) Time (t))/(Gene expression level DMSO treated—(Average of the 3 replicates) Time (t)).
# Any fold change <0 indicated a down regulation or reduction of the mRNA production, any fold change >0 indicated an up regulation or increase of mRNA production. Genes are filtered according to the fold change and the statistical significance of the changes (1-way-ANOVA test p<0.05)).
structure (smiles),measurement,setting,value
"O=C(/C=C/c1ccc(CN(CCO)CCc2c[nH]c3ccccc23)cc1)NO [LAQ824, N-Hydroxy-3-[4-[[(2-hydroxyethyl)[2-(1H-indol-3-yl)-ethyl]-amino]methyl]phenyl]-2E-2-propenamide]",Fold change AMP-activated protein kinase family member 5 (ARK5) 204589_at,2 h,−1.1 fold
same,"Fold change ANP32B acidic (leucine-rich) nuclear phosphoprotein 32 family, member B (SSP29) 201305_x_at",2 h,−1.3 fold
same,"Fold change AVEN apoptosis, caspase activation inhibitor (Aven) 219366_at",2 h,−1.2 fold
same,Fold change B-cell CLL/lymphoma 3 (BCL3) 204908_s_at,2 h,−1.9 fold
same,"Fold change BAI1-associated protein 2 (BAP2, IRSp53) 205293_x_at",2 h,1.4 fold
same,"Fold change BAI1-associated protein 3 (BAP3, KIAA0734) 204874_x_at",2 h,1.0 fold
same,"Fold change BAI1-associated protein 3 (BAP3, KIAA0734) 216356_x_at",2 h,2.3 fold
same,Fold change BCL2-associated athanogene 2 (BAG-2) 209406_at,2 h,−1.4 fold
same,"Fold change BCL2-interacting killer (apoptosis-inducing) (BP4, NBK, BIP1) 205780_at",2 h,2.0 fold
same,Fold change BCL2-like 1 (BCL2L1) 206665_s_at,2 h,−1.2 fold
same,Fold change BH3 interacting domain death agonist (BID) 204493_at,2 h,1.1 fold
same,"Fold change Cyclin A2 (CCN1, CCNA) 203418_at",2 h,−1.3 fold
same,"Fold change Cyclin-dependent kinase inhibitor 2D (p19, inhibits CDK4) (INK4D) 210240_s_at",2 h,1.9 fold
same,Fold change DEC1-anti apoptosis (BHLHB2) 201169_s_at,2 h,−3.2 fold
same,Fold change Diphtheria toxin receptor (heparin-binding epidermal growth factor-like growth factor) (DTR) 203821_at,2 h,9.8 fold
same,"Fold change Early growth response 1 (TIS8, NGFI-A, KROX-24, ZIF-268) 201694_s_at",2 h,1.4 fold
same,Fold change GMCL germ cell-less homolog (Drosophila) (GMCL) 218458_at,2 h,1.7 fold
same,Fold change Katanin p80 (WD40-containing) subunit B 1 (KAT) 203163_at,2 h,1.5 fold
same,"Fold change NACHT, leucine rich repeat and PYD containing 1 (PP1044) 218380_at",2 h,2.8 fold
same,Fold change Paternally expressed Gene 10 (PEG10) 212092_at,2 h,1.1 fold
same,Fold change Paternally expressed Gene 10 (PEG10) 212094_at,2 h,1.1 fold
same,Fold change Protein regulator of cytokinesis 1 (PRC1) 218009_s_at,2 h,−1.2 fold
same,Fold change SKAP55 protein 216899_s_at,2 h,1.0 fold
same,"Fold change Secreted frizzled-related protein 1 (FRP, SARP2) 202036_s_at",2 h,1.1 fold
same,"Fold change Secreted frizzled-related protein 1 (FRP, SARP2) 202037_s_at",2 h,1.1 fold
same,Fold change Serine/threonine kinase 6 (AIK) 208079_s_at,2 h,1.0 fold
same,Fold change Tribbles homolog 3a (TRIB3) 218145_at,2 h,−1.3 fold
same,"Fold change Tumor necrosis factor receptor superfamily, member 6 (TNFRSF6) 215719_x_at",2 h,−1.3 fold
same,"Fold change Tumor necrosis factor receptor superfamily, member 6 (TNFRSF6) 216252_x_at",2 h,−1.3 fold
same,Fold change Tumor protein p53 (Li-Fraumeni syndrome) 201746_at,2 h,1.1 fold
same,Fold change Tumor protein p53 (Li-Fraumeni syndrome) 211300_s_at,2 h,1.1 fold
same,Fold change member of the N-myc downregulated gene family (NDRG4) 209159_s_at,2 h,1.2 fold
same,Fold change AMP-activated protein kinase family member 5 (ARK5) 204589_at,6 h,−4.3 fold
same,"Fold change ANP32B acidic (leucine-rich) nuclear phosphoprotein 32 family, member B (SSP29) 201305_x_at",6 h,−1.6 fold
same,"Fold change AVEN apoptosis, caspase activation inhibitor (Aven) 219366_at",6 h,−1.5 fold
same,Fold change B-cell CLL/lymphoma 3 (BCL3) 204908_s_at,6 h,−10.5 fold
same,"Fold change BAI1-associated protein 2 (BAP2, IRSp53) 205293_x_at",6 h,6.2 fold
same,"Fold change BAI1-associated protein 3 (BAP3, KIAA0734) 204874_x_at",6 h,5.1 fold
same,"Fold change BAI1-associated protein 3 (BAP3, KIAA0734) 216356_x_at",6 h,11.1 fold
same,Fold change BCL2-associated athanogene 2 (BAG-2) 209406_at,6 h,−2.4 fold
same,"Fold change BCL2-interacting killer (apoptosis-inducing) (BP4, NBK, BIP1) 205780_at",6 h,6.3 fold
same,Fold change BCL2-like 1 (BCL2L1) 206665_s_at,6 h,−4.2 fold
same,Fold change BH3 interacting domain death agonist (BID) 204493_at,6 h,−1.9 fold
same,"Fold change Cyclin A2 (CCN1, CCNA) 203418_at",6 h,−2.3 fold
same,"Fold change Cyclin-dependent kinase inhibitor 2D (p19, inhibits CDK4) (INK4D) 210240_s_at",6 h,4.9 fold
same,Fold change DEC1-anti apoptosis (BHLHB2) 201169_s_at,6 h,−4.5 fold
same,Fold change Diphtheria toxin receptor (heparin-binding epidermal growth factor-like growth factor) (DTR) 203821_at,6 h,8.5 fold
same,"Fold change Early growth response 1 (TIS8, NGFI-A, KROX-24, ZIF-268) 201694_s_at",6 h,3.6 fold
same,Fold change GMCL germ cell-less homolog (Drosophila) (GMCL) 218458_at,6 h,4.1 fold
same,Fold change Katanin p80 (WD40-containing) subunit B 1 (KAT) 203163_at,6 h,2.9 fold
same,"Fold change NACHT, leucine rich repeat and PYD containing 1 (PP1044) 218380_at",6 h,7.6 fold
same,Fold change Paternally expressed Gene 10 (PEG10) 212092_at,6 h,2.0 fold
same,Fold change Paternally expressed Gene 10 (PEG10) 212094_at,6 h,1.9 fold
same,Fold change Protein regulator of cytokinesis 1 (PRC1) 218009_s_at,6 h,−1.9 fold
same,Fold change SKAP55 protein 216899_s_at,6 h,1.6 fold
same,"Fold change Secreted frizzled-related protein 1 (FRP, SARP2) 202036_s_at",6 h,1.6 fold
same,"Fold change Secreted frizzled-related protein 1 (FRP, SARP2) 202037_s_at",6 h,1.8 fold
same,Fold change Serine/threonine kinase 6 (AIK) 208079_s_at,6 h,−2.0 fold
same,Fold change Tribbles homolog 3a (TRIB3) 218145_at,6 h,−4.6 fold
same,"Fold change Tumor necrosis factor receptor superfamily, member 6 (TNFRSF6) 215719_x_at",6 h,−3.2 fold
same,"Fold change Tumor necrosis factor receptor superfamily, member 6 (TNFRSF6) 216252_x_at",6 h,−2.9 fold
same,Fold change Tumor protein p53 (Li-Fraumeni syndrome) 201746_at,6 h,−1.9 fold
same,Fold change Tumor protein p53 (Li-Fraumeni syndrome) 211300_s_at,6 h,−1.6 fold
same,Fold change member of the N-myc downregulated gene family (NDRG4) 209159_s_at,6 h,2.8 fold
